Patent US7498404B2, “Compositions, methods and uses for a novel family of peptides” (priority 2004, dated 2009)
Marks after values point to notes of the source that are not given here.

Legend:
[1] = format: physicochemical
Gram-positive bacteria = assay: MIC against Gram-positive bacteria; format: cell-based; details: most Gram (+)
Procedure: (§1) MIC determination assays. Staphylococcal aureus was grown to mid-log phase in LB at 37° C., and diluted by 500-fold with fresh LB and dispensed into 96-well micro-titer plates. Different concentrations of peptides were added, and the micro-titer plates were incubated at 37° C. with shaking. A minimal inhibition concentration (MIC) was determined as the lowest peptide concentration that produced a clear well. All experiments were performed in triplicates, and highly consistent MICs were obtained.
(§2) For Gram (−) the following were the antimicrobial activities observed: E. coli: MIC>20 microgram/ml; Pseudomonas and Salmonella: MIC>100 microgram/ml.

E. coli = assay: MIC against E. coli; format: cell-based
Procedure: as §1, §2

Pseudomonas = assay: MIC against Pseudomonas; format: cell-based
Procedure: as §1, §2

Salmonella = assay: MIC against Salmonella; format: cell-based
Procedure: as §1, §2

S. cerevisiae = assay: Antifungal MIC; format: cell-based
Tetrahymena = assay: Anti-protozoal MIC; format: cell-based
Broiler Chicken [2] = assay: Growth promoting Studies 1-1 and 1-2 (21-day battery study); format: in vivo
straight run broilers [3] = assay: Growth promoting Studies 2-1 and 2-2, mash feed, batteries; format: in vivo, chicken
Procedure: Briefly, the peptide was used in a semi-purified form to study the growth and feed conversion of […] old straight run broilers in batteries (Studies 2-1 and 2-2). Two amounts were tested against a feed control, peptide at 6 ppm and peptide at 12 ppm, 12 repetitions were carried out per treatment with 4 birds per pen. The diet used in the study was as follows.

straight run broilers [4] = assay: Growth promoting Studies 3-1 and 3-2, pelleted starter feed, batteries; format: in vivo, chicken
Excerpt: Eight (8) study repetitions per treatment were used, again with 4 birds per pen.

Broiler Chicken [5] = assay: Growth promoting Studies 4-1 and 4-2 with direct coccidial challenge; format: in vivo
[6] = Broiler floor pen trial, 42 days, natural colibacillosis challenge; format: in vivo, chicken
Procedure: A broiler floor pen trial to compare the performance of a new anti-microbial designated for this project as BT1583 alone and in combination with the widely used coccidiostat monensin (MON) to MON fed alone, MON in combination with the also widely used antimicrobial Bacitracin MD (BMD) and BMD alone.
The following levels of each treatment were evaluated:
The study design included 10 pens per treatment and 40 birds per pen housed on day of hatch. Two basal corn-soy based diets of decreasing protein (approximately 23 to 20%) and increasing metabolizable energy (approximately 1400 to 1455 kcal/lb) were used from Day 0 to 21 (starter feed) and Days 22 to 42 (grower feed), respectively. Treatment premixes were measured and blended into diets at required levels. Between days 0 and 21 mortality was less than 1% with all birds growing optimally and of high health across all groups.
Beginning on study day 22, the study director modulated house temperature and air flow to mimic industry conditions conducive to outbreaks of colibacillosis within naive broiler flocks. This was done to stimulate a natural challenge for this study. Mortality climbed to a house average of approximately 10% by Day 42. A majority of these deaths occurred in groups not receiving BT1583 or MON. Lesions were consistent with those of colibacillosis (air sac, pneumonia, peri-hepatitis, peri-carditis and extreme morbidity). All mortality was documented (weight at death and post-mortem observations). All birds and feeds were weighed at 42 days. All remaining birds were euthanized on Day 42 by asphyxiation with the carcasses submitted for rendering.
The following variables were tested: Response Variables: Gain Per Bird, Feed Per Gain, Mortality (%), Adjusted Feed Per Gain. F test from One Way ANOVA with one blocking factor=location, at Day 42 using 0.05 level of significance.
All Response Variables: LSD T-test procedure for pair-wise comparisons with Type 1 error of means when ANOVA F ratio is significant, overall significance level of 0.05 used. Lines below means (see Table 30, below) indicate groups with insignificant differences in means.
Adjusted Feed/Gain: The total weight of mortality in each pen was added to the final live weight, that value reduced by subtracting the initial weight and then dividing that value into the Total feed consumed to calculate the Adjusted Feed/Gain.

food-producing animals = assay: Growth promotion in food-producing animals (overall statement); format: in vivo, chicken
Excerpt: Furthermore, unlike conventional antibiotics, the present invention may target the bacterial membrane, and there is currently not a drug target that can be altered with one or two mutations to allow development of drug resistance. […] Alternatively, but in no way limiting the present invention, the present invention may be used as an animal-use only antibiotic for bacterial infections. Also, to date, there has been no observed decrease in the growth promoting activity of the peptide.

carboxypeptidase Y = target: T1, carboxypeptidase Y (Saccharomyces cerevisiae, UniProt P00729)
T1 sequence (P00729 112-532): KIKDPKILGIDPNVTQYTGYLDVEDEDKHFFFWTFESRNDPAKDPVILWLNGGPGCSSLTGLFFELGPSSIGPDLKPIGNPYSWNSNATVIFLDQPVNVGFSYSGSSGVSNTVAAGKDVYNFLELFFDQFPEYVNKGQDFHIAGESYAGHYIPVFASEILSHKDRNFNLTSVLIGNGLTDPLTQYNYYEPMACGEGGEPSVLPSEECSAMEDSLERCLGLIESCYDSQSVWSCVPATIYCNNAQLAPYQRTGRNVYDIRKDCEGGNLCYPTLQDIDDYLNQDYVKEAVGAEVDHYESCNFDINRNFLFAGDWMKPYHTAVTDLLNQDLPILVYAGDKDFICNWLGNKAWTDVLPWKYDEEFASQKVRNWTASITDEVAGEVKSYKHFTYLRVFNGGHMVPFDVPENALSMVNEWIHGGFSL

[7] = Study 3-2, 12 ppm with Coban (vs Coban alone)
[8] = Study 4-1, 24 ppm with direct coccidial challenge
[9] = Study 4-2, 48 ppm with direct coccidial challenge
[10] = MON 99 ppm, BT1583 12 ppm, BMD 55 ppm, alone or combined

Question: For “Me2Bmt-L-dO-I-V-V-dK-V-dL-K-dY-L-Vol [BT1583]”, which “only known in vitro method to inactivate” value [1] is on record?
Answer: The value was “pH 1.0 plus 100 °C overnight”.

Question: And the MIC (Gram-positive bacteria)?
Answer: The MIC was 1 microgram/ml.

Question: What about the MIC (E. coli) of the same substance?
Answer: The MIC was greater than 20 microgram/ml.

Question: And the MIC (Pseudomonas)?
Answer: Its MIC is greater than 100 microgram/ml.

Question: And the MIC (Salmonella)?
Answer: Its MIC is greater than 100 microgram/ml.

Question: And the MIC (S. cerevisiae)?
Answer: Its MIC is 50 microgram/ml.

Question: What about the MIC (Tetrahymena) of the same substance?
Answer: The MIC was 25 microgram/ml.

Question: What about the “Additional weight gain (%)” value (Broiler Chicken [2]; Study 1-1, 10 ppm) of the same substance?
Answer: Its value is 17%.

Question: And the “Feed conversion improvement (point)” value (Broiler Chicken [2]; Study 1-1, 10 ppm)?
Answer: The value was 7 point.

Question: What about the “Additional weight gain (%)” value (Broiler Chicken [2]; Study 1-2, 30 ppm) of the same substance?
Answer: Its value is 17%.

Question: What about the “Feed conversion improvement (point)” value (Broiler Chicken [2]; Study 1-2, 30 ppm) of the same substance?
Answer: Its value is 8 point.

Question: What about the “Additional weight gain (%)” value (straight run broilers [3]; Study 2-1, 6 ppm) of the same substance?
Answer: Its value is 6.7%.

Question: What about the “Feed conversion improvement (point)” value (straight run broilers [3]; Study 2-1, 6 ppm) of the same substance?
Answer: The value was 9 point.

Question: What about the “Additional weight gain (%)” value (straight run broilers [3]; Study 2-2, 12 ppm) of the same substance?
Answer: Its value is 11%.

Question: And the “Feed conversion improvement (point)” value (straight run broilers [3]; Study 2-2, 12 ppm)?
Answer: The value was 10 point.

Question: What about the “20-day cumulative weight gain, Mean” value (straight run broilers [3]; Table 9, 6 ppm in feed) of the same substance?
Answer: Its value is 591.9750.

Question: What about the “20-day cumulative weight gain, Mean” value (straight run broilers [3]; Table 9, 12 ppm in feed) of the same substance?
Answer: Its value is 618.9340.

Question: What about the “20-day cumulative weight gain, estimated marginal Mean” value (straight run broilers [3]; Table 11, 6 ppm in feed) of the same substance?
Answer: The value was 591.975.

Question: And the “20-day cumulative weight gain, estimated marginal Mean” value (straight run broilers [3]; Table 11, 12 ppm in feed)?
Answer: The value was 618.934.

Question: What about the “20-day cumulative weight gain, Duncan homogeneous subsets” value (straight run broilers [3]; Table 12, 6 ppm in feed) of the same substance?
Answer: Its value is 591.9750.

Question: And the “20-day cumulative weight gain, Duncan homogeneous subsets” value (straight run broilers [3]; Table 12, 12 ppm in feed)?
Answer: The value was 618.9340.

Question: And the “20-day cumulative feed conversion rate, Mean” value (straight run broilers [3]; Table 13, 6 ppm in feed)?
Answer: Its value is 1.5065.

Question: And the “20-day cumulative feed conversion rate, Mean” value (straight run broilers [3]; Table 13, 12 ppm in feed)?
Answer: The value was 1.4959.

Question: And the “20-day cumulative feed conversion rate, estimated marginal Mean” value (straight run broilers [3]; Table 15, 6 ppm in feed)?
Answer: Its value is 1.506.

Question: And the “20-day cumulative feed conversion rate, estimated marginal Mean” value (straight run broilers [3]; Table 15, 12 ppm in feed)?
Answer: Its value is 1.496.

Question: What about the “20-day cumulative feed conversion rate, Duncan homogeneous subsets” value (straight run broilers [3]; Table 16, 6 ppm in feed) of the same substance?
Answer: The value was 1.5065.

Question: What about the “20-day cumulative feed conversion rate, Duncan homogeneous subsets” value (straight run broilers [3]; Table 16, 12 ppm in feed) of the same substance?
Answer: The value was 1.4959.

Question: What about the “Additional weight gain (%)” value (straight run broilers [4]; Study 3-1, 12 ppm) of the same substance?
Answer: Its value is 16%.

Question: And the “Feed conversion improvement (point)” value (straight run broilers [4]; Study 3-1, 12 ppm)?
Answer: Its value is 9 point.

Question: What about the “Additional weight gain (%)” value (straight run broilers [4]; [7]) of the same substance?
Answer: Its value is 5.4%.

Question: What about the “Feed conversion improvement (point)” value (straight run broilers [4]; [7]) of the same substance?
Answer: The value was 9 point.

Question: And the “20-day cumulative weight gain, Mean” value (straight run broilers [4]; Table 18, BT1583 12 ppm, BMD 50 ppm, COB 90 ppm, alone or combined)?
Answer: Its value is 831.7396.

Question: What about the “21-day cumulative weight gain, estimated marginal Mean” value (straight run broilers [4]; Table 20, BT1583 12 ppm, BMD 50 ppm, COB 90 ppm, alone or combined) of the same substance?
Answer: The value was 831.740.

Question: And the “21-day cumulative weight gain, Duncan homogeneous subsets” value (straight run broilers [4]; Table 21, BT1583 12 ppm, BMD 50 ppm, COB 90 ppm, alone or combined)?
Answer: Its value is 831.7396.

Question: And the “20-day cumulative feed conversion rate, Mean” value (straight run broilers [4]; Table 22, BT1583 12 ppm, BMD 50 ppm, COB 90 ppm, alone or combined)?
Answer: Its value is 1.3308.

Question: What about the “21-day cumulative feed conversion rate, estimated marginal Mean” value (straight run broilers [4]; Table 24, BT1583 12 ppm, BMD 50 ppm, COB 90 ppm, alone or combined) of the same substance?
Answer: The value was 1.331.

Question: And the “20-day cumulative feed conversion rate, Duncan homogeneous subsets” value (straight run broilers [4]; Table 25, BT1583 12 ppm, BMD 50 ppm, COB 90 ppm, alone or combined)?
Answer: The value was 1.3308.

Question: And the “Additional weight gain (%)” value (Broiler Chicken [5]; [8])?
Answer: The value was 7.1%.

Question: What about the “Feed conversion improvement (point)” value (Broiler Chicken [5]; [8]) of the same substance?
Answer: Its value is 13 point.

Question: And the “Additional weight gain (%)” value (Broiler Chicken [5]; [9])?
Answer: Its value is 9.3%.

Question: What about the “Feed conversion improvement (point)” value (Broiler Chicken [5]; [9]) of the same substance?
Answer: The value was 17 point.

Question: What about the efficacy against colibacillosis ([6]; 3 to 4 week old naive broiler chickens, simulated commercial conditions) of the same substance?
Answer: Its efficacy against colibacillosis is “highly effective”.

Question: And the “feed/gain advantage over monensin and BMD fed alone and in combination” value ([6]; Day 42)?
Answer: The value was no less than 10 point.

Question: And the “weight gain advantage over monensin and BMD fed alone and in combination” value ([6]; Day 42)?
Answer: The value was no less than 20 point.

Question: And the “Day 42 Feed/Gain” value [6, 10]?
Answer: The value was 1.722^ab.

Question: What about the “Day 42 Gain/Bird” value [6, 10] of the same substance?
Answer: The value was 4.333^ab lb.

Question: What about the “Day 42 Mortality (%)” value ([6]; acute and chronic colibacillosis, MON 99 ppm, BT1583 12 ppm, BMD 55 ppm) of the same substance?
Answer: The value was 2.75^a %.

Question: And the “Day 42 Adjusted Feed/Gain” value ([6]; adjusted for mortality weight, MON 99 ppm, BT1583 12 ppm, BMD 55 ppm)?
Answer: The value was 1.704^ab.

Question: What about the feed conversion improvement (food-producing animals) of the same substance?
Answer: Its feed conversion improvement is “about 10 points”.

Question: And the “cleavage by carboxypeptidase Y” value (carboxypeptidase Y)?
Answer: Its value is “resistant”.
